Test results as given in patent US7662767B2, “Polynucleotide intercalator interceptors and inhibitors” (Materials Evolution and Development USA, Inc., priority 2000, dated 2010).
Where two headings read alike, the source gives them in different places.

Legend:
[1] = test system: chicken erythrocyte nuclear chromatin; test: Blocking of acridine orange intercalation into chicken erythrocyte nuclear chromatin, fluorescence microscopy; design: key: 0: no blocking effect; 1: slight blocking; 2: moderate blocking; 3: almost total blocking (very slight green fluorescence detectable); 4: complete blockage (no green fluorescence detectable); conditions: 10 μM AO
Method: Microscope slides coated with chicken erythrocyte were stained with 10 μM AO at three separate areas on the microscope slide as described above. Slides were exposed to […] different xanthies at four different molar ratios for three different periods of time. The xanthines, theophylline, caffeine, 1,3,7,9-tetramethyl uric acid, and aminophylline, were prepared with 10 μM AO at molar ratios of 50:1, 500:1, 2500:1, 5000:1 xanthine to AO in distilled water. Microscope slides coated with chicken erythrocytes were exposed to a mixture of xanthine/AO at each molar ratio for periods of 10 min, 1 min, and 10 seconds under static (non-agitated) conditions. […] Following exposure to the xanthine/AO or to the DNA/AO solutions, the slides were rinsed in distilled water, allowed to dry at room temperature, examined by fluorescence microscopy, and the color of the nuclei recorded. Results were recorded as follows: 0=no blocking effect; 1=slight blocking; 2=moderate blocking; 3=almost total blocking (very slight green fluorescence detectable); 4=complete blockage (no green fluorescence detectable).
In the implementation shown in Table 4-2, the relative intensity of the green fluorescent color ([…]) utilizing a red blocking filter (≧600 nm) was used as the indicator of the intensity of staining. The molar ratio is expressed as the ratio of xanthine concentration to 10 μM AO. Results were recorded as follows: 0=no blocking effect; 1=slight blocking; 2=moderate blocking; 3=almost total blocking (very slight green fluorescence detectable); 4=complete blockage (no green fluorescence detectable). *Kassoc values for the xanthines are taken from Table 2-1 and the Kassoc values for DNA were taken from Table 3-2.

[2] = test system: chicken erythrocyte nuclear chromatin; test: Removal of acridine orange from stained chicken erythrocyte nuclear chromatin by xanthine rinse, fluorescence microscopy; conditions: for Nuclear color, Stain: before xanthine rinse; for Nuclear color, Re-stain: re-stained after xanthine rinse; for Nuclear color, After Rinse: xanthine rinse 50 mM, 1 hour, static
Method: Experiments were conducted to determine whether xanthines with known binding affinities to AO could compete with nuclear DNA for binding to AO and, therefore, be able to remove AO from its intercalation position within nuclear chromatin. Fluorescence microscopy was used to observe the fluorescent color produced by the AO-DNA complex following the staining of chicken erythrocyte nuclear chromatin with AO at both 5 μM and 5 mM.
Microscope slides smeared with chicken erythrocytes were stained with either 5 μM or 5 mM AO for a period of 30 minutes followed by three 10 second rinses in distilled water before drying at room temperature. Slides were then examined by fluorescence microscopy using a, Zeiss Model 63 Microscope with a xenon source fluorescent emitter. In some instances, a blocking filter was used to filter out fluorescence emission in the red and higher wavelengths. Photomicrographs were taken with Kodak Gold 35 mm ASA 1600 speed film, developed and color prints made. Comparative photomicrographs were taken at the same magnification and at the same exposure time. Selected photomicrographs were digitally scanned (Hewitt-Packard, Model 4L Scanner, Palo Alto, Calif.) and stored on 100 MB ZIP cartridges.
Slides were again examined by fluorescence microscopy and fluorescence color of the nuclei recorded. Slides were again stained with 5 mM AO then re-examined by fluorescence microscopy and fluorescence color of the nuclei recorded.
In the example shown in Table 4-3, the chicken erythrocytes were smeared and dried on a microscope slide prior to exposure to the AO solution for 30 minutes followed by water rinses to remove excess AO. Following drying, each slide was observed under fluorescence microscopy then placed in one of the xanthine solutions (50 ml volume) for 1 hour under static conditions, rinsed with water, then dried prior to being observed by fluorescence microscopy without a red blocking filter. Finally, each slide was restained following the initial staining procedures and again observed by fluorescence microscopy. Kassoc values are taken from Table 2-1 and are expressed in M^−1.

[3] = test system: chicken erythrocyte nuclear chromatin; test: Acridine orange staining of chicken erythrocyte nuclear chromatin, fluorescence microscopy; assay type: binding
Method: Chicken erythrocytes were chosen as one implementation of this invention. These nucleated cells have mature erythrocytes with no RNA. Blood was taken from a mature chicken. The blood was drawn from a wing vein into 50 ml glass heparin containing tubes to prevent clotting. This blood was used to make smears on microscope slides. These blood smeared slides were allowed to dry at room temperature and were stored in microscope boxes.
Solutions of AO were prepared at 5 mM and 10 μM concentrations in distilled water. Microscope slides smeared with chicken erythrocytes were stained by placing the slide into a glass slide holder containing 50 ml of AO solution under static conditions from 2 min to 30 min, followed by three 10 second rinses in distilled water before drying at room temperature. […] Processed slides were stored in the dark then read and photomicrographs taken (Zeiss Model 63 Microscope, 1600 ASA Kodak film) soon after removal from the dark to avoid photobleaching.
In the example shown in Table 4-1, the chicken erythrocytes were smeared and dried on a microscope slide prior to exposure to two different concentrations of AO (10 μM and 5 mM), rinsed with distilled water, and allowed to dry. Erythrocytes were examined with fluorescence microscopy and the color of the nuclei recorded. […]

[4] = AO-AO, AO [20 μM], Kapuscinski & Kimmel, 1993, cited from earlier work
[5] = Xanthine/AO molar ratio 5000:1, exposure 10 min
[6] = molar ratio 50:1, exposure 10 sec
[7] = molar ratio 50:1, exposure 1 min
[8] = molar ratio 50:1, exposure 10 min
[9] = molar ratio 500:1, exposure 10 sec
[10] = molar ratio 500:1, exposure 1 min
[11] = molar ratio 500:1, exposure 10 min
[12] = molar ratio 2500:1, exposure 10 sec
[13] = molar ratio 2500:1, exposure 1 min
[14] = molar ratio 2500:1, exposure 10 min
[15] = molar ratio 5000:1, exposure 10 sec
[16] = molar ratio 5000:1, exposure 1 min

| SMILES | blocking of AO intercalation [1, 5] | blocking of AO intercalation [1, 6] | blocking of AO intercalation [1, 7] | blocking of AO intercalation [1, 8] | blocking of AO intercalation [1, 9] | blocking of AO intercalation [1, 10] | blocking of AO intercalation [1, 11] | blocking of AO intercalation [1, 12] | blocking of AO intercalation [1, 13] | blocking of AO intercalation [1, 14] | blocking of AO intercalation [1, 15] | blocking of AO intercalation [1, 16] | Nuclear color, Stain ([2]; AO [5 μM] 30 minutes) | Nuclear color, Re-stain ([2]; AO [5 μM]) | Nuclear color, After Rinse ([2]; AO [5 μM]) | Nuclear color, Stain ([2]; AO [5 mM] 30 minutes) | Nuclear color, Re-stain ([2]; AO [5 mM]) | Nuclear color, After Rinse ([2]; AO [5 mM]) | other results |
| --- | --- | --- | --- | --- | --- | --- | --- | --- | --- | --- | --- | --- | --- | --- | --- | --- | --- | --- | --- |
| Cn1c(=O)c2c(ncn2C)n(C)c1=O [1,3,7-trimethyl xanthine (caffeine), 1,3,7-trimethyl xanthine] | 1 | 0 | 0 | 0 | 2 | 0 | 0 | 2 | 1 | 0 | 3 | 2 | Green | Green | None | Red | Red | Red- |  |
| Cn1c(=O)c2[nH]cnc2n(C)c1=O.NCCN [1,3-dimethyl xanthine ethylenediamine] | 3 | 0 | 0 | 0 | 2 | 2 | 0 | 3 | 2 | 1 | 3 | 3 | Green | Green | None | Red | Red | None | effect of xanthine rinse on fluorescence of AO stained nuclear chromatin ([2]; 50 mM xanthine rinse): removal of most, if not all, green and red color |
| CN(C)c1ccc2cc3ccc(N(C)C)cc3nc2c1.Cl [AO, 3,6-bis[dimethylamino]acridine hydrochloride] |  |  |  |  |  |  |  |  |  |  |  |  |  |  |  |  |  |  | Fluorescent Color ([3]; AO 10 μM): Green; Fluorescent Color ([3]; AO 5 mM): Red; K ± S.D. ([4]; Absorbance (mathematical model)): 29,100 M^−1; K ± S.D. ([4]; Absorbance plus NaCl 150 mM): 42,500 M^−1 |
